Test [1] concerns the target T1, Full-length FROUNT protein (Homo sapiens, UniProt Q9BW27).
T1 construct: made in house
T1 sequence (Q9BW27 1-656): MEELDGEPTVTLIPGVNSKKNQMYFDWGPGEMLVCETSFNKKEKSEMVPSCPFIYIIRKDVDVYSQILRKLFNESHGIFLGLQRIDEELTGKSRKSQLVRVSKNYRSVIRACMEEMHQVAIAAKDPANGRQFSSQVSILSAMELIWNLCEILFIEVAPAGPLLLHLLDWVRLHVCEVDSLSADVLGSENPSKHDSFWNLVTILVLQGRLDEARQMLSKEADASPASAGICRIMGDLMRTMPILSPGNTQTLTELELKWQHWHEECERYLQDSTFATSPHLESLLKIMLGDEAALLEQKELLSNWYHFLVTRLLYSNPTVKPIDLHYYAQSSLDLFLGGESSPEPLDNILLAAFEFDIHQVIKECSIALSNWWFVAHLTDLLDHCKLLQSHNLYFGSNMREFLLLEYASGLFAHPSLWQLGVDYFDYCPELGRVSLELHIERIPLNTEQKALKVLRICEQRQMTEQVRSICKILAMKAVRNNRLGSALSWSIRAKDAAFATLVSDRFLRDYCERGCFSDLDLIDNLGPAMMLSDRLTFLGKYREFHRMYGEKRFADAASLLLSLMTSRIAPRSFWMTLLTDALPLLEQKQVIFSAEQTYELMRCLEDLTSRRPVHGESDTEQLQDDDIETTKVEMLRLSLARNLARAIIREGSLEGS
As to the kind of experiment: Surface plasmon resonance binding to FROUNT. The conditions noted are these: SPR. The protocol: Interactions between FROUNT and compounds in the library were analyzed by surface plasmon resonance (SPR) using Biacore […] (GE Healthcare). Full-length FROUNT protein (SEQ ID NO:2) (Esaki, K. et al. Protein Expr Purif 77, 86-91, (2011)) was immobilized on a CM5 sensor chip. Solutions of disulfiram prepared by serial dilution in HBS-EP buffer containing 2% DMSO (GE Healthcare) were applied to the sensor chip at a flow rate of 30 μL/min. The resonance unit (RU) was measured during the process from the binding to the washing to analyze the binding dynamics. Biacore T100 evaluation software was used to carry out solvent correction for DMSO.
A general note: SPR reads the build-up and loss of mass on a sensor chip optically.

For the next test, the target named is T2, CCR2 (Homo sapiens, UniProt P41597).
T2 sequence (P41597 1-360 isoform P41597-2): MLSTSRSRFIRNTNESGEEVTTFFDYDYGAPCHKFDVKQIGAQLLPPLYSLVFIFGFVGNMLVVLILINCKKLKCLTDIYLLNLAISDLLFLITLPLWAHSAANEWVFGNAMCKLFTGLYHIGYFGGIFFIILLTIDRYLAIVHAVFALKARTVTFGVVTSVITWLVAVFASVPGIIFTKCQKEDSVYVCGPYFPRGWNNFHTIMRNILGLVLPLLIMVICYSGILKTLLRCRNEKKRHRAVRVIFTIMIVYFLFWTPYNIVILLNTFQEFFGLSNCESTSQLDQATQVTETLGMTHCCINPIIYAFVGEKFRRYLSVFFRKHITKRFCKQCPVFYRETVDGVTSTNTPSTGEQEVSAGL
Briefly: Surface plasmon resonance binding to CCR2. As to conditions: SPR.

The target in another test is T3, FROUNT-CCR2 interaction (Homo sapiens, UniProt Q9BW27).
T3 construct: made in house
T3 sequence (Q9BW27 500-656): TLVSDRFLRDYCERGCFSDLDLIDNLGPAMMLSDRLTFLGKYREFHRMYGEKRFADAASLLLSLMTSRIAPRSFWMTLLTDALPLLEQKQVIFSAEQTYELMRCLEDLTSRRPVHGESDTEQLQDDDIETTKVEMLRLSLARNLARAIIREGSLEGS
Briefly: HTRF binding inhibition assay, FROUNT-CCR2 interaction. The protocol: For the screening, a compound library containing 131,200 kinds of compounds dissolved in DMSO at a concentration of 10 mM or 2 mM (obtained from Open Innovation Center for Drug Discovery, the University of Tokyo) was used. The HTRF assay was carried out using a 384-well low-dose white microplate (Corning Coaster; catalog number 3676). In each well, 4 μL of a solution of 20 nM GST fusion FROUNT protein (a recombinant polypeptide prepared by fusing GST to aa 500-656 of SEQ ID NO:2), and DMSO or test compounds were mixed with a binding buffer (10 mM HEPES [pH 7.4], 0.2 M potassium fluoride, 10 mM NaCl, 0.1% Tween 20, and 0.5% bovine serum albumin [BSA]), and the plate was incubated at room temperature for 30 minutes. […]. After incubation at room temperature for 20 hours, the HTRF signal was measured at emission wavelengths of 620 nm and 665 nm using a multilabel counter EnVision (PerkinElmer).
By the same HTRF assay as described above, the abilities of disulfiram to inhibit the FROUNT-CCR2 interaction or the FROUNT-CCR5 interaction were investigated. As the CCR5 pro-C peptide, the 16 residues […] (SEQ ID NO:4) in the C-terminal region of CCR5 was used. As a control, the p53-MDM2 interaction (which is inhibited by an MDM-2-specific inhibitor Nutlin), which is also a helix peptide-protein interaction like the interaction between FROUNT and CCR2 or CCR5 but is not related thereto, was used.
For orientation: In TR-FRET formats the signal depends on donor and acceptor labels being close together.

A further test deals with T4, FROUNT protein (Homo sapiens, UniProt Q9BW27).
T4 construct: A fragment consisting of the region of the 500th to 656th amino acids of FROUNT protein; made in house
T4 sequence (Q9BW27 500-656): T3 sequence (Q9BW27 500-656)
As to the kind of experiment: NMR analysis of binding to FROUNT fragment. As for the experimental part: A fragment consisting of the region of the 500th to 656th amino acids of FROUNT protein and a CCR2 pro-C region fragment of 16 residues (SEQ ID NO:3) were prepared, and the binding state between the two fragments and the binding state between FROUNT protein and disulfiram were investigated by NMR analysis.

For test [2], the system named is LLC (Lewis lung cancer) cells. As to the kind of experiment: Subcutaneous tumor growth model (LLC). The conditions noted are these: 0.8 mg/g in feed, oral, Day 4 to Day 11, vs control group. Type of test: in vivo, mouse. As for the experimental part: For evaluation of the subcutaneous tumor growth, LLC (Lewis lung cancer) cells (5×10^5) were suspended in 50 μL of PBS, and subcutaneously administered to the right abdomen of each mouse. The tumor size was measured using a caliper twice a week. The tumor volume was calculated according to the following equation. Tumor volume=(tumor shorter diameter)^2×tumor longer diameter/2 In order to investigate the antitumor effect in the subcutaneous tumor growth model, disulfiram was added in an amount of 0.8 mg/g to CE-2 powder feed (CLEA Japan, Inc.) supplemented with 5% sucrose (Wako), and the mice were fed therewith every day during the period from Day 4 to Day 11 post tumor inoculation. The control group was fed with a feed supplemented with the same amount of sucrose.

Molecules are shown by their SMILES.

In general, IC50 refers to the concentration that gives 50% inhibition.

On to `CCN(CC)C(=S)SSC(=S)N(CC)CC` [DSF, disulfiram], for which the “binding to FROUNT protein” value in test [1] is “directly bound”. In addition, on CCR2, the “binding to CCR2” value is reported as “did not bind”. Besides, at FROUNT-CCR2 interaction, the “inhibitory action against FROUNT-CCR2 relative to p53-MDM2” value is listed as “about 100 times”. Moreover, the “inhibition of FROUNT-CCR2 interaction” value on FROUNT-CCR2 interaction (HTRF, result in words) was “selectively inhibited”. At FROUNT-CCR2 interaction (HTRF, read-out: FROUNT inhibition (IC50 against FROUNT-CCR2)), the IC50 was 42 nM. At FROUNT protein, the “interaction with FROUNT / binding site on FROUNT” value is “directly interact”. Also, the tumor volume entry in test [2] is given as “significantly smaller”.

The values above are taken from US10722480B2, “Agent for controlling cells constituting cancer microenvironment or inflammatory microenvironment” (The University of Tokyo, priority 2015, dated 2020).
